With `CC1(C)CCSc2c(CC#Cc3ccc(C(=O)O)c(O)c3)cccc21` [Example 6, 2-Hydroxy-4-[3-(4,4-dimethylthiochroman-8-yl)prop-1-ynyl]benzoic Acid] the melting point was 190 to 191 °C.
Compound `COc1c(CC#Cc2ccc(C(=O)O)cc2)cc(-c2ccccc2)cc1C(C)(C)C` [Example 31, 4-[3-(5-tert-Butyl-4-methoxybiphenyl-3-yl)prop-1-ynyl]benzoic Acid] has a melting point of 229 to 231 °C.
For `COc1c(CC#Cc2ccc(C(=O)O)cc2)cc(C(C)(C)C)cc1C(C)(C)C` [Example 19, 4-[3-(3,5-Di-tert-butyl-2-methoxyphenyl)prop-1-ynyl]benzoic Acid], the melting point was 237 to 239 °C.
Compound `COc1c(C(O)C#Cc2ccc(C(=O)O)cc2)cc(C(C)(C)C)cc1C(C)(C)C` (stereo not shown) [Example 18, 4-[3-(3,5-Di-tert-butyl-2-methoxyphenyl)-3-hydroxyprop-1-ynyl]benzoic Acid] has a melting point of 208 to 209 °C.
In the case of `COc1c(C(O)C#Cc2ccc(C(=O)O)cc2)cc(-c2ccccc2)cc1C(C)(C)C` (stereo not shown) [Example 23, 4-[3-(5-tert-Butyl-4-methoxybiphenyl-3-yl)-3-hydroxyprop-1-ynyl]benzoic Acid], the melting point is reported as 165 to 167 °C.
Compound `CC1(C)CCSc2cccc(C(O)C#Cc3ccc(C(=O)O)cc3)c21` (stereo not shown) [Example 11, 4-[3-(4,4-Dimethylthiochroman-5-yl)-3-hydroxyprop-1-ynyl]benzoic Acid] has a melting point of 198 °C.
With `COCOc1c(C(O)C#Cc2ccc(C(=O)O)cc2)cc(C(C)(C)C)cc1C(C)(C)C` (stereo not shown) [Example 14, 4-[3-(3,5-Di-tert-butyl-2-(methoxymethoxy)phenyl)-3-hydroxyprop-1-ynyl]benzoic Acid] the melting point was 197 °C.
`COc1c(C(C#Cc2ccc(C(=O)O)cc2)OC)cc(C(C)(C)C)cc1C(C)(C)C` (stereo not shown) [Example 25, 4-[3-(3,5-Di-tert-butyl-2-methoxyphenyl)-3-methoxyprop-1-ynyl]benzoic Acid] showed a melting point of 162 to 164 °C.
Work on `CC1(C)CCC(C)(C)c2c(C(O)C#Cc3ccc(C(=O)O)cc3)cc(-c3ccccc3)cc21` (stereo not shown) yielded a melting point of 250 °C.
Work on `CCOC(=O)c1ccc(C#CCc2cc(C(C)(C)C)cc(C(C)(C)C)c2O)cc1` [Example 16, Ethyl 4-[3-(3,5-di-tert-butyl-2-hydroxyphenyl)prop-1-ynyl]benzoate] yielded a melting point of 113 to 115 °C.
